Data on 87 molecules can be found in a melting point compilation (Tetko et al.; mined from patent text by program, amines drawn as free bases though some values may be those of a salt).

Usually melting point stands for the temperature of the solid-liquid transition.

With `CC(=O)NS(=O)(=O)c1cccc(NC(=O)NC2N=C(c3ccccc3F)c3ccccc3N(CC(=O)N3CC4CCC(CC4)C3)C2=O)c1` (racemic), the melting point is 193 to 203 °C.
In the case of `C[C@@H](C[C@H](N)C(=O)O)C(=O)O` it was 163 to 164 °C.
`O=c1[nH]c2cc(Cl)ccc2c(NS(=O)(=O)c2ccccc2)c1-c1ccccc1` displayed a melting point of 268 °C.
In the case of `CCc1ncnc(NC2CCC3(CC2)OCC(c2ccccc2)O3)c1Cl` (configuration not stated) it was 105 to 106 °C; in that of `CC(Oc1ccc2nc(N)sc2c1)c1c(F)ccc(Cl)c1F` (configuration not stated), 160 °C.
The same measure for `CN(C)C(=O)C(=O)c1c(Cl)n(C)c2ccc(Cl)cc12`: 205 to 206 °C; for `COCC1OC(n2cnc3c(NCc4cccc(I)c4)nc(Cl)nc32)C(O)C1O` (configuration not stated): 84 to 86 °C; for `O=C1C[C@@H](C(=O)O)N(C(=O)OCc2ccccc2)C1`: 99 to 101 °C.
In turn, `CCOC(=O)[C@H]1CCc2ccc(O)cc2O1` gave a melting point of 77 to 78 °C.
In the case of `CC(C)(C)OC(=O)N1C=CN(CC#N)C(=O)[C@@H]1Cc1ccccc1` it was 160 to 162 °C; in that of `CCc1cc(C(C)(C)C)c(OP2OCC(C)(C)CO2)c(C(C)(C)C)c1CC(=O)O`, 134 to 136 °C; in that of `Fc1ccccc1NC1(c2nnn[nH]2)CCN(Cc2ccccc2)CC1`, 195 to 198 °C.
Consider `O=C1c2ccccc2-c2c1c1ccccc1c(=O)n2CCNS(=O)(=O)c1ccc(Br)cc1`, for which the melting point is 260 to 263 °C.
Turning to `CCCc1nc2cnc3cc(C)ccc3c2o1`, the melting point was 65 to 68 °C.
In turn, `COc1cc(O)cc(C(F)(F)F)c1` came in with a melting point of 75 °C.
The same measure for `CC(CC(C(C)C(C)(C)O)N(C)C)C1CCC2C(O)CCCC12C` (configuration not stated): 180 to 181 °C.
In turn, `Cc1cc(OCc2ccccc2)c(C23CC4CC(CC(C4)C2)C3)cc1Br` returned a melting point of 138 to 139 °C.
The same measure for `c1ccc2nc3c(nc2c1)OCC1CCCN31` (single isomer, unassigned; (+)): 121 to 123 °C; for `C=CC[C@H](C(N)=O)[C@@H](CC(C)C)C(=O)NC1N=C(c2cccc(OC)c2)c2ccccc2N(C)C1=O` (some centres not stated): 225 to 230 °C.
Regarding `Cn1cncc1C1(C(c2cccs2)c2cccs2)CCOC1=O` (configuration not stated), the melting point stood at 80 °C.
In the case of `OCc1c(CO)c(-c2ccc(F)c(F)c2)n2c1Cc1ccccc1C2` it was 145 to 146 °C; in that of `O=C(NCc1ccc(Cl)cc1)c1cn(CC2CCCO2)c2sc(CN3CCOCC3)cc2c1=O` (configuration not stated), 191 to 195 °C; in that of `N#CC1CCc2c(C(=O)O)cccc21` (configuration not stated), 206 to 208 °C.
In the case of `N#Cc1nc2ccc(Cl)cc2c2c1ncn2-c1ccccc1Cl`, the melting point was in the range of 248 to 250 °C.
The molecule `COC(=O)CCCOc1ccc(CC(C)NCC(O)c2cc3ccccc3o2)cc1` (configuration not stated) gave a melting point of 63 to 70 °C.
The same measure for `O=[N+]([O-])c1ccc(CCN2CCN(c3ccc([N+](=O)[O-])cc3Cl)CC2)cc1`: 100 to 102 °C.
Consider `CCC(Cc1ccc(S(=O)(=O)c2ccc(S(N)(=O)=O)s2)cc1)N(C)C` (configuration not stated), for which the melting point lay in the range of 169 to 172 °C.
Molecule `C=CCNS(=O)(=O)c1ccc(Br)cc1` registered a melting point of 63 to 65 °C.
`COc1ccc(C=C(c2ccc(OCc3ccccc3)cc2)N(C)C)cc1` had a melting point of 60 °C.
For the molecule `COC(=O)c1ccc(-c2nc(-c3ccc(C)cc3)cs2)cc1`, the melting point is 185 to 187 °C.
In turn, `COc1ccc(C=CCCCCOc2ccc(S(=O)(=O)c3cccc(C(=O)O)c3)cc2CCC(=O)O)cc1` had a melting point of 145 to 148 °C.
The same measure for `CCOC(=O)C1C(=O)C=C(OCC)CC1c1ccc(C)cc1` (configuration not stated): 75 to 77 °C; for `COc1cccc(OC)c1-c1cc2c(ccn2C)c2c1C(=O)NC2=O`: 285 to 288 °C; for `Cc1cc([N+](=O)[O-])c(C)c2c1OC(C)(C)C2=O`: 124 to 126 °C.
The molecule `Cc1ccc2ccn3c(C(F)(F)F)nnc3c2c1` returned a melting point of 205 to 206 °C.
The same measure for `COCCC(=O)C1(N)C=CC(N(C)C(C)=O)=C(C#N)C1` (configuration not stated): 143 to 145 °C; for `S=C(NCCC1=CCCCC1)Nc1nc2ccccc2[nH]1`: 178 to 180 °C.
`CC(C)(C)[Si](C)(C)OCCn1ccc([N+](=O)[O-])n1` gave a melting point of 76 to 77 °C.
The same measure for `COC(=S)c1sc(C)c(Cl)c1OC`: 82 to 83 °C; for `CCCCCCCCCCCCCCNCc1ccc(OCc2cccc(F)c2)cc1`: 58 °C.
The same measure for `N#CCCN(Cc1ccccc1)CC(O)CO` (configuration not stated): 132 °C; for `COc1ccccc1NC(=O)Nc1nc(NC(CC(=O)O)c2ccccc2)nc(Oc2ccc3ccccc3c2)n1` (configuration not stated): 149 °C.
In the case of `COc1cc(OCc2ccncc2)ccc1/C=C/c1cc(/C=C/c2cccc3[nH]ccc23)n[nH]1` it was 207 to 215 °C.
For the molecule `COCCn1nnc2cc3c(cc2c1=O)OCN(C1CC1)C3=O`, the melting point fell in the range of 103 to 105 °C.
Molecule `Cc1nc2c(F)cccc2c(Cl)c1CCCl` displayed a melting point of 101 to 103 °C.
For the molecule `COCC(=O)Nc1cccc(-c2ccnc(NCCc3ccc(OC)c(OC)c3)n2)c1`, the melting point lay within 140 to 141 °C.
`COc1cc2c(cc1-c1ccccc1)CCN=C2C1(c2ccccc2Cl)CCC1`: the melting point fell in the range of 149 to 152 °C.
With `Clc1c2ccccc2nc2c1c(CBr)nn2-c1ccccn1`, the melting point was 203 to 205 °C.
As for `O=Cc1ccc(-c2ccc(-c3ccc(C=O)o3)cn2)cc1`, the melting point fell in the range of 204 to 206 °C.
In turn, `COC(=O)C(N)Cc1ccc(OCCN(C)c2nc3ccccc3o2)cc1` (configuration not stated) returned a melting point of 95 to 96 °C.
In the case of `Cc1nc2c(s1)-c1nc(NCc3ccccc3)ncc1CC2` it was 152 to 154 °C; in that of `CCCCCCCN(CC)C(=O)CCC(=O)c1ccc(NS(C)(=O)=O)cc1`, 100 to 102 °C.
In the case of `OC1CCCc2nc3cc(F)ccc3c(NCc3ccccc3C(F)(F)F)c21` (configuration not stated) it was 149 to 153 °C; in that of `Nc1nc2cc(N)c(OC(F)(F)F)cc2s1`, 175 °C; in that of `O=C(O)c1ccc(-c2ncc(-c3ccc(F)cc3F)o2)cc1`, 301 to 302 °C.
For `O=C(c1ccccc1SSc1ccccc1C(=O)N1CCC(CO)C1)N1CCC(CO)C1` (configuration not stated), the melting point was 169 to 171 °C.
The same measure for `Cc1ccc(NC(=O)CN2C(=O)C3(COc4cc5c(cc43)CCO5)c3ccccc32)c(C)c1` (configuration not stated): 277 to 279 °C; for `COc1cc2c(c3c1OC(C)(C)C3)C(c1ccn(CC(=O)NCC(N)=O)c(=O)c1)=NC(C)(C)C2`: 166 to 168 °C; for `O=S(=O)(Oc1ccc2sc(-c3ccc(OCCN4CCCC4)cc3)cc2c1)C(F)(F)F`: 95 to 99 °C.
In the case of `CC(C)(C(=O)C=Cc1ccc(F)cc1)C1OCCO1` it was 76 °C; in that of `CNc1nc(C2C(=O)Nc3ccccc32)c2cn(C3CCCC3)nc2n1` (configuration not stated), more than 300 °C; in that of `CCCCC1=NC(C)(C)C(=O)N1Cc1ccc(-c2ccccc2C(=O)OC(C)(C)C)cc1`, 98 to 100 °C.
Molecule `CCCCc1oc2ccccc2c1C(=O)Nc1ccc2c(Br)c(OCc3nn[nH]n3)ccc2c1` came in with a melting point of 242 to 245 °C.
`CCNC(=S)Nc1cccc(C(=O)OCC)c1NCc1ccc(-c2ccccc2C#N)cc1` displayed a melting point of 108 to 110 °C.
`CC1(C)NC(=O)N(c2ccc([N+](=O)[O-])c(C(F)(F)F)c2)C1=N` gave a melting point of 168 °C.
In turn, `CS(=O)(=O)Nc1cc2c(cc1Oc1ccc(F)cc1F)C(=O)CCO2` displayed a melting point of 164 to 165 °C.
On to `COc1ccc2c(c1)OC(C)(C)C(NC(=O)c1cc(Cl)ccc1OC)C2=O` (configuration not stated), for which the melting point stood at 174 °C.
`COc1cccc(F)c1-n1nnc2cc(C(C)(C)C)c(OCc3ncnn3C)nc21` yielded a melting point of 116 to 118 °C.
`Cc1cc(C(=O)CBr)c(C)o1` gave a melting point of 56 to 58 °C.
For `CS(=O)(=O)c1ccccc1CNC(=O)[C@@H]1CCCN(c2cccc3c2C(=O)N(Cc2ccncc2)C3=O)C1`, the melting point fell in the range of 101 to 102 °C.
The molecule `CC(CS)C(=O)NC(C(=O)O)C(C)C` (configuration not stated) registered a melting point of 150 to 157 °C.
In the case of `Cc1c(NC(=O)c2ccc(C#CC3(O)CCC3)cc2)ccc2cc(CNCC(C)C)n(C)c12` it was 222 to 223 °C; in that of `CN1CCN(c2n[nH]c(-c3ccc(Cl)cc3)c2-c2ccncc2)CC1`, 262 to 264 °C.
The same measure for `Cc1nc(N2CCN(Cc3ccc(F)cc3)C2=O)sc1C(=O)NCc1csc(C(C)C)n1`: 170 to 172 °C; for `CCOC(=O)c1ccccc1N(CC(=O)N(C)c1ccccc1)C(=O)CNC(=O)Nc1cccc(CO)c1`: 184 °C; for `COc1ccccc1NC(=O)NCc1nnc(C)n1-c1sc(C)c(C)c1C(=O)c1ccc(Cl)cc1`: 228 to 230 °C.
In the case of `COC(=O)CCCc1cc2cc(Cl)ccc2n1S(=O)(=O)c1cccc2cccnc12` it was 120 to 124 °C.
For the molecule `O=C(O)Cc1cccc2c(-c3ccc(C(F)(F)F)cc3)nccc12`, the melting point lay in the range of 228 to 230 °C.
As to `O=c1ccn(-c2ccc(C(F)(F)F)cc2)nc1-c1ccnn1-c1ccccc1`, the melting point lay in the range of 237 to 238 °C.
In the case of `CCC1(CCCCl)C(=O)Nc2ccccc21` (configuration not stated) it was 91 to 93 °C.
`Cc1ccc(NS(=O)(=O)c2ccc(N3CCNC3=O)cc2)c(C)c1`: the melting point lay within 238 to 239 °C.
Molecule `O=C1O[C@@H](CNC(=O)C(F)(F)F)CN1c1ccc2c(c1)CCCc1cnoc1-2` displayed a melting point of 203 to 205 °C.
For the molecule `C=CC(=O)N1C(C)(C)CC(OC(=O)C(C#N)(Cc2cc(C(C)(C)C)c(O)c(C(C)(C)C)c2)Cc2cc(C(C)(C)C)c(O)c(C(C)(C)C)c2)CC1(C)C`, the melting point came out at 174 °C.
Consider `CCCCc1c2c(nc3cc(F)c(F)cc13)-c1cc3c(c(=O)n1C2)COC(=O)CC3(O)CC` (configuration not stated), for which the melting point was more than 275 °C.
Molecule `COC(=O)c1sc2ccc(OC)cc2c1OC(C)C#N` (configuration not stated) registered a melting point of 127 to 129 °C.
The same measure for `O=C(NCc1cccs1)c1ccc(Cl)cc1`: 153 to 154 °C.
In the case of `O=C1OCC(C(F)(F)F)N1c1nc(-c2ccc(Br)cc2)cs1` (configuration not stated) it was 154 to 156 °C.
